By EC50 is commonly meant the concentration that produces a half-maximal response. The term IC50 denotes the concentration needed to halve the response being measured.

Where two headings read alike, the source gives them in different places.

Assay [1] has as its system T1, TAAR348 (trace amine-associated receptor (TAAR)-like receptor 348).
T1 construct: full-length ORF (348 residues) with N-terminal Rho-tag, expressed in HEK293T
The experiment in a line: TR-FRET cAMP assay in TAAR348-expressing HEK293T cells (agonist). The assay is classed as cell-based, Petromyzon marinus. In general terms: TR-FRET usually uses a lanthanide donor and a delayed reading to cut background.

Assay [2] shares this test system. As to the kind of experiment: TR-FRET cAMP assay in TAAR348-expressing HEK293T cells; inhibition of […] spermine response. The assay is classed as cell-based, Petromyzon marinus.
Assay [3] relates to TAAR348 (trace amine-associated receptor (TAAR)-like receptor 348).

`NCCCNCCCCNCCCNC(=O)Cc1cccc2ccccc12` [SP21, 1-naphthylacetyl spermine] registered an EC50 in assay [1] of 5 ± 1 µM.

On to `C1CNCCNCCNCCN1` [SP20, 1,4,7,10-tetraazacyclododecane], for which, in assay [2], the concentration for half-maximal inhibition (IC50) was found to be 0.6 ± 0.1 µM.

On to `NCCCNCCCCNCCCN` [spermine], for which, in assay [3], the 50% effective concentration (EC50) is 34 ± 1 µM.

For the origin of these results see article PMC6615597, “Spermine in semen of male sea lamprey acts as a sex pheromone” (PLoS Biology, 2019).
